Experimental data from patent US10550111B2, “Pyrimidine urea compound containing isoxazolines and use thereof” (SHENYANG SINOCHEM AGROCHEMICALS R&D CO., LTD, priority 2014, dated 2020).

How the values were obtained:
[1] = test system: Abutilon theophrasti Medic.; test: Bioassay of herbicidal activity in greenhouse (further screening); format: in vivo
Summary of the method: (§1)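 Monocot and dicot weeds grown in greenhouse pots; emulsifiable concentrate track-sprayed at 500 L/hm² pre-emergence (24 h after seeding) or post-emergence (grasses 2–3-leaf, broad-leaves 2–4-leaf). Growth inhibition scored visually, 0 = no action, 100 = all dead or not emerged.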

[2] = test system: Echinochloa crus-galli (L.) Beauv.; test: as above; format: in vivo
Summary of the method: as §1

[3] = test system: Setaria glauca (L.) Beauv.; test: as above; format: in vivo
Summary of the method: as §1

[4] = test system: Zinnia elegans Jacq.; test: as above; format: in vivo
Summary of the method: as §1

[5] = test system: broad-leaf weeds and grass weeds; test: General screening of herbicidal activity in greenhouse; format: in vivo; details: 1000 g a.i./hm^2;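 note: 0 means no visible effect and 100 means all weeds dead or not emerged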
Summary of the method: as §1

[6] = test system: Arthraxon hispidus (Thunb.) Makino; test: Weed spectrum study in greenhouse; format: in vivo
Source text: (§2) Seeds of monocotyledonous and dicotyledonous weeds were sown in nutrition soil in paper pot (7 cm diameter), covered with soil in 1 cm and grown in the greenhouse under good growth conditions (temperature, atmospheric humidity, water supply). The compounds of the present invention as emulsifiable concentrate, were applied in pre-emergence and post-emergence treatment by track sprayer (Engineer Research Ltd., pressure 1.95 kg/cm^2, volume 500 L/hm^2, track speed 1.48 km/h). Pre-emergence treatment was conducted after seeding 24 hours and post-emergence treatment was done when the respective weeds reached predetermined leaf stage (grass weed 2- to 3-leaf stage, broad-leaf weed 2- to 4-leaf stage), the state of growth of the respective weeds were visually observed to determine the growth inhibition rate (%) in accordance with the following evaluation standard.
(§3) Growth inhibition rate (%): 0=no discernible action: 100=all weeds dead or not emerged.
(§4) The method is as example 18.

[7] = test system: Cyperus difformis L.; test: Weed spectrum study in greenhouse; format: in vivo
Source text: as §2, §3, §4

[8] = test system: Cyperus glomeratus L.; test: Weed spectrum study in greenhouse; format: in vivo
Source text: as §2, with “([…]),” for “(grass weed 2- to 3-leaf stage, broad-leaf weed 2- to 4-leaf stage),”
as §3, §4

[9] = test system: Digitaria sanguinalis (L.); test: Weed spectrum study in greenhouse; format: in vivo
Source text: as §2, with “([…],” for “(grass weed 2- to 3-leaf stage,”
as §3, §4

[10] = test system: Amaranthus retroflexus L.; test: Weed spectrum study in greenhouse; format: in vivo
Source text: as §2, with “[…]),” for “broad-leaf weed 2- to 4-leaf stage),”
as §3, §4

[11] = test system: grass weed; test: Field trial, weed control in orchard (non-cultivated land); format: in vivo, Digitaria sanguinalis (L.) Scop.
Description: (§5) The field trial was conducted in an orchard located at Liaoyang city, Liaoning province, China; the orchard planted mainly apple trees and almond trees, plum trees and pear trees as well, weeding control were conducted three times one year by application of paraquat. Weeds were distributed uniformity and moderate density, mainly of broad-leaf weeds including Conyza canadensis (L.)Cronq., Sonchus brachyotus DC., Polygonum aviculare L., Humulus scandens (Lour.) Merr., Ixeridium sonchifolium (Maxim.) Shih, Galium aparine L. var. tenerum Gren. et (Godr.) Rebb., Rumex japonicus Houtt. and Metaplexis japonica (Thunb.) Makino, partly of grass weed was Digitaria sanguinalis (L.) Scop., average height range was between 30 and 40 cm. sprayer was knapsack hand-operated sprayer(AGROLEX HD400) produced by AGROLEx PTE Ltd., spray volume was 675 L/hm^2, processing date was Jul. 3, 2015. On the 15th day after application, weeds were visually observed to determine the growth inhibition rate (%).

[12] = test system: broad-leaf weeds; test: as above; format: in vivo
Description: as §5

[13] = test system: weeds; test: as above; format: in vivo
Description: as §5

[14] = pre-emergence, dose 600 g a.i./hm^2
[15] = dose 60 g a.i./hm^2, 15th day after application
[16] = dose 120 g a.i./hm^2, 15th day after application
[17] = dose 180 g a.i./hm^2, 15th day after application
[18] = dose 240 g a.i./hm^2, 15th day after application
[19] = dose 300 g a.i./hm^2, 15th day after application

Q: For `CCOC(=O)C1(C)CC(c2cc(-n3c(=O)cc(C(F)(F)F)n(C)c3=O)c(F)cc2Cl)=NO1` (stereo not drawn) [Compound 6], which “Growth inhibition rate, Post-emergence treatment, Abutilon theophrasti Medic.” value ([1]; dose 7.5 g a.i./hm^2) is on record?
A: 100%

Q: What about the “Growth inhibition rate, Post-emergence treatment, Abutilon theophrasti Medic.” value ([1]; dose 15 g a.i./hm^2) of the same compound?
A: 100%

Q: What about the “Growth inhibition rate, Post-emergence treatment, Abutilon theophrasti Medic.” value ([1]; dose 30.0 g a.i./hm^2) of the same compound?
A: 100%

Q: And the “Growth inhibition rate, Post-emergence treatment, Abutilon theophrasti Medic.” value ([1]; dose 60.0 g a.i./hm^2)?
A: 100%

Q: What about the “Growth inhibition rate, Post-emergence treatment, Abutilon theophrasti Medic.” value ([1]; dose 120.0 g a.i./hm^2) of the same compound?
A: 100%

Q: What about the “Growth inhibition rate, Post-emergence treatment, Abutilon theophrasti Medic.” value ([1]; dose 600 g a.i./hm^2) of the same compound?
A: 100%

Q: What about the “Growth inhibition rate, Pre-emergence treatment, Abutilon theophrasti Medic.” value [1, 14] of the same compound?
A: 100%

Q: And the “Growth inhibition rate, Post-emergence treatment, Echinochloa crus-galli (L.) Beauv.” value ([2]; dose 7.5 g a.i./hm^2)?
A: 70%

Q: And the “Growth inhibition rate, Post-emergence treatment, Echinochloa crus-galli (L.) Beauv.” value ([2]; dose 15 g a.i./hm^2)?
A: 98%

Q: What about the “Growth inhibition rate, Post-emergence treatment, Echinochloa crus-galli (L.) Beauv.” value ([2]; dose 30.0 g a.i./hm^2) of the same compound?
A: 98%

Q: And the “Growth inhibition rate, Post-emergence treatment, Echinochloa crus-galli (L.) Beauv.” value ([2]; dose 60.0 g a.i./hm^2)?
A: 100%

Q: And the “Growth inhibition rate, Post-emergence treatment, Echinochloa crus-galli (L.) Beauv.” value ([2]; dose 120.0 g a.i./hm^2)?
A: 100%

Q: And the “Growth inhibition rate, Post-emergence treatment, Echinochloa crus-galli (L.) Beauv.” value ([2]; dose 600 g a.i./hm^2)?
A: 100%

Q: And the “Growth inhibition rate, Pre-emergence treatment, Echinochloa crus-galli (L.) Beauv.” value [2, 14]?
A: 70%

Q: And the “Growth inhibition rate, Post-emergence treatment, Setaria glauca (L.) Beauv.” value ([3]; dose 7.5 g a.i./hm^2)?
A: 85%

Q: What about the “Growth inhibition rate, Post-emergence treatment, Setaria glauca (L.) Beauv.” value ([3]; dose 15 g a.i./hm^2) of the same compound?
A: 98%

Q: What about the “Growth inhibition rate, Post-emergence treatment, Setaria glauca (L.) Beauv.” value ([3]; dose 30.0 g a.i./hm^2) of the same compound?
A: 95%

Q: And the “Growth inhibition rate, Post-emergence treatment, Setaria glauca (L.) Beauv.” value ([3]; dose 60.0 g a.i./hm^2)?
A: 100%

Q: And the “Growth inhibition rate, Post-emergence treatment, Setaria glauca (L.) Beauv.” value ([3]; dose 120.0 g a.i./hm^2)?
A: 100%

Q: What about the “Growth inhibition rate, Post-emergence treatment, Setaria glauca (L.) Beauv.” value ([3]; dose 600 g a.i./hm^2) of the same compound?
A: 100%

Q: What about the “Growth inhibition rate, Pre-emergence treatment, Setaria glauca (L.) Beauv.” value [3, 14] of the same compound?
A: 55%

Q: What about the “Growth inhibition rate, Post-emergence treatment, Zinnia elegans Jacq.” value ([4]; dose 7.5 g a.i./hm^2) of the same compound?
A: 95%

Q: And the “Growth inhibition rate, Post-emergence treatment, Zinnia elegans Jacq.” value ([4]; dose 15 g a.i./hm^2)?
A: 98%

Q: And the “Growth inhibition rate, Post-emergence treatment, Zinnia elegans Jacq.” value ([4]; dose 30.0 g a.i./hm^2)?
A: 100%

Q: What about the “Growth inhibition rate, Post-emergence treatment, Zinnia elegans Jacq.” value ([4]; dose 60.0 g a.i./hm^2) of the same compound?
A: 100%

Q: What about the “Growth inhibition rate, Post-emergence treatment, Zinnia elegans Jacq.” value ([4]; dose 120.0 g a.i./hm^2) of the same compound?
A: 100%

Q: What about the “Growth inhibition rate, Post-emergence treatment, Zinnia elegans Jacq.” value ([4]; dose 600 g a.i./hm^2) of the same compound?
A: 100%

Q: And the “Growth inhibition rate, Pre-emergence treatment, Zinnia elegans Jacq.” value [4, 14]?
A: 55%

Q: What about the “pre-emergence and post-emergence herbicidal activity against broad-leaf weeds and grass weeds” value [5] of the same compound?
A: good

Q: And the “Growth inhibition rate, Arthraxon hispidus (Thunb.) Makino (3-leaf stage)” value (“Growth inhibition rate … (3-leaf stage)” below) ([6]; dose 7.5 g a.i./hm^2)?
A: 60%

Q: And the “Growth inhibition rate … (3-leaf stage)” value ([6]; dose 15 g a.i./hm^2)?
A: 85%

Q: What about the “Growth inhibition rate … (3-leaf stage)” value ([6]; dose 30 g a.i./hm^2) of the same compound?
A: 90%

Q: And the “Growth inhibition rate … (3-leaf stage)” value ([6]; dose 60 g a.i./hm^2)?
A: 100%

Q: And the “Growth inhibition rate … (3-leaf stage)” value ([6]; dose 120 g a.i./hm^2)?
A: 100%

Q: What about the “Growth inhibition rate, Cyperus difformis L. (4,5-leaf stage)” value ([7]; dose 7.5 g a.i./hm^2) of the same compound?
A: 30%

Q: What about the “Growth inhibition rate, Cyperus difformis L. (4,5-leaf stage)” value ([7]; dose 15 g a.i./hm^2) of the same compound?
A: 60%

Q: What about the “Growth inhibition rate, Cyperus difformis L. (4,5-leaf stage)” value ([7]; dose 30 g a.i./hm^2) of the same compound?
A: 90%

Q: What about the “Growth inhibition rate, Cyperus difformis L. (4,5-leaf stage)” value ([7]; dose 60 g a.i./hm^2) of the same compound?
A: 95%

Q: And the “Growth inhibition rate, Cyperus difformis L. (4,5-leaf stage)” value ([7]; dose 120 g a.i./hm^2)?
A: 100%

Q: What about the “Growth inhibition rate, Cyperus glomeratus L. (5-leaf stage)” value (“Growth inhibition rate … (5-leaf stage)” for short) ([8]; dose 7.5 g a.i./hm^2) of the same compound?
A: 80%

Q: What about the “Growth inhibition rate … (5-leaf stage)” value ([8]; dose 15 g a.i./hm^2) of the same compound?
A: 80%

Q: And the “Growth inhibition rate … (5-leaf stage)” value ([8]; dose 30 g a.i./hm^2)?
A: 90%

Q: What about the “Growth inhibition rate … (5-leaf stage)” value ([8]; dose 60 g a.i./hm^2) of the same compound?
A: 100%

Q: What about the “Growth inhibition rate … (5-leaf stage)” value ([8]; dose 120 g a.i./hm^2) of the same compound?
A: 100%

Q: And the “Growth inhibition rate, Digitaria sanguinalis (L.) (4,5-leaf stage)” value (from here on “Growth inhibition rate … (L.) (4,5-leaf stage)”) ([9]; dose 7.5 g a.i./hm^2)?
A: 80%

Q: What about the “Growth inhibition rate … (L.) (4,5-leaf stage)” value ([9]; dose 15 g a.i./hm^2) of the same compound?
A: 90%

Q: And the “Growth inhibition rate … (L.) (4,5-leaf stage)” value ([9]; dose 30 g a.i./hm^2)?
A: 100%

Q: And the “Growth inhibition rate … (L.) (4,5-leaf stage)” value ([9]; dose 60 g a.i./hm^2)?
A: 100%

Q: What about the “Growth inhibition rate … (L.) (4,5-leaf stage)” value ([9]; dose 120 g a.i./hm^2) of the same compound?
A: 100%

Q: And the “Growth inhibition rate, Amaranthus retroflexus L. (height 10-15 cm)” value (“Growth inhibition rate … (height 10-15 cm)” for short) ([10]; dose 7.5 g a.i./hm^2)?
A: 90%

Q: What about the “Growth inhibition rate … (height 10-15 cm)” value ([10]; dose 15 g a.i./hm^2) of the same compound?
A: 98%

Q: What about the “Growth inhibition rate … (height 10-15 cm)” value ([10]; dose 30 g a.i./hm^2) of the same compound?
A: 100%

Q: What about the “Growth inhibition rate … (height 10-15 cm)” value ([10]; dose 60 g a.i./hm^2) of the same compound?
A: 100%

Q: What about the “Growth inhibition rate … (height 10-15 cm)” value ([10]; dose 120 g a.i./hm^2) of the same compound?
A: 100%

Q: And the “Growth inhibition rate (%) of grass weed” value [11, 15]?
A: 61.7%

Q: And the “Growth inhibition rate (%) of grass weed” value [11, 16]?
A: 71.7%

Q: And the “Growth inhibition rate (%) of grass weed” value [11, 17]?
A: 83.3%

Q: And the “Growth inhibition rate (%) of grass weed” value [11, 18]?
A: 88.3%

Q: What about the “Growth inhibition rate (%) of grass weed” value [11, 19] of the same compound?
A: 94.3%

Q: And the “Growth inhibition rate (%) of broad-leaf weeds” value [12, 15]?
A: 85.0%

Q: What about the “Growth inhibition rate (%) of broad-leaf weeds” value [12, 16] of the same compound?
A: 93.3%

Q: And the “Growth inhibition rate (%) of broad-leaf weeds” value [12, 17]?
A: 94.3%

Q: And the “Growth inhibition rate (%) of broad-leaf weeds” value [12, 18]?
A: 97.0%

Q: And the “Growth inhibition rate (%) of broad-leaf weeds” value [12, 19]?
A: 92.7%

Q: And the “Total growth inhibition rate (%) of weeds” value [13, 15]?
A: 81.7%

Q: And the “Total growth inhibition rate (%) of weeds” value [13, 16]?
A: 91.7%

Q: And the “Total growth inhibition rate (%) of weeds” value [13, 17]?
A: 91.7%

Q: What about the “Total growth inhibition rate (%) of weeds” value [13, 18] of the same compound?
A: 93.3%

Q: What about the “Total growth inhibition rate (%) of weeds” value [13, 19] of the same compound?
A: 98.7%
